# Experimental data reported in patent publication US7009045B2 (priority 2000, dated 2006).
# Several values for one entry are separate records, joined by “and”; a condition that tells them apart may be missing. Equal values may be shown once.
# Assays:
# C. famata = assay type: cell-based, Candida famata
# [1] = test system: Candida famata regulatory mutants able to overproduce riboflavin; experiment: Sensitivity to copper ions, solid Burkholder medium (Table 12); assay type: cell-based
# Protocol: (§1) The sensitivity of the regulatory mutants of the yeast C. famata which overproduce riboflavin in iron rich medium probably due to defects in genes regulating repression (repression mutants), to different ions of heavy metals was studied. For this, the analyzed strains were streaked on the YPD plates and then were replica-plated on Burkholder synthetic medium containing leucine (40 μg/ml). The C.famata mutants L20105-40-1-11, L20105-40-1-17, L20105-3-2-1, L20105-3-2-8 and L20105-3-2-12 (all contained leu2 marker) accumulated 80–100 μg riboflavin/ml. The mutants #75, 4-48, 2-5 produced much higher amounts of riboflavin (200–250 μg/ml) but were prototrophs for leucine synthesis. Strain #75 was characterized by retarded growth comparing with other mutants. The strains VKM Y-9 (wild type) and L20105 (leu2) were used as the control strains.
# (§2) Mutants overproducing lower amounts of riboflavin appeared to be more sensitive to CuSO4 (0.15 mM) than that of the strains producing higher amounts of riboflavin (inhibitory concentration 0.5 mM) (Table 12).
# [2] = test system: Candida famata regulatory mutants able to overproduce riboflavin; experiment: as above; assay type: cell-based; design: key: +++: strong growth; ++: weak growth; —: absence of growth; conditions: L20105-3-2-4
# [3] = test system: Candida famata regulatory mutants able to overproduce riboflavin; experiment: as above; assay type: cell-based; design: key: +++: strong growth; ++: weak growth; +: very weak growth; —: absence of growth
# Protocol: as §1, §2
# [4] = test system: Pichia guilliermondii wild type and regulatory mutants (rib81); experiment: Sensitivity after electroporation to K2Cr2O7, Burkholder medium with 0.3 M sucrose (Table 22); assay type: cell-based; conditions: Cr^+6 100 to 600 μM
# [5] = test system: Pichia guilliermondii wild type and regulatory mutants (rib81); experiment: Sensitivity after electroporation to K2Cr2O7, medium with 0.5% glycerol (Table 21); assay type: cell-based; design: key: +++: strong growth; ++: weak growth; +: very weak growth; —: absence of growth; conditions: #9-20 (leu2); K2Cr2O7 125 μM
# Description: The possibility for positive selection of P. guilliermondii rib81 transformants unable to overproduce riboflavin in minimal medium was studied. For this, the toxicity of K2Cr2O7 (Cr^+6) was compared for the P. guilliermondii wild-type strain ATCC 9058 and regulatory mutants P. guilliermondii rib81 9-20 and 20-2. The cells were pregrown in liquid YPD to OD 1.5–2.0 (540 nm) and electroporated according to the protocol described (Example 34). Electroporated cells were washed three times with 10×volume of 0.6 M KCl and then the volume was adjusted to 1 ml. Then the cells were plated at 0.2 ml suspension per plate which contained 0.5% glycerol, 0.6 M KCl and K2Cr2O7 (50–1000 μM).
# The visual selection of the non-overproducing riboflavin transformants is rather arbitrary and uncertain. Therefore it was decided to develop the method for positive selection of the transformants using tentative differences in sensitivity to K2Cr2O7 of wild-type P. guilliermondii and the regulatory mutants rib81 9-20 and 20-2. After 6 days of cultivation in the medium with 0.5% glycerol, it was shown that K2Cr2O7 at 150–180 μM inhibited growth of regulatory mutant 9-20 more strongly than that of the wild strain (Table 21).
# [6] = test system: Candida famata regulatory mutants able to overproduce riboflavin; experiment: Sensitivity to K2Cr2O7, solid Burkholder medium with 0.5% glycerol (Table 14); assay type: cell-based; design: key: +++: strong growth; ++: weak growth; +: very weak growth; —: absence of growth
# Protocol: as §1
# [7] = test system: Pichia guilliermondii wild type and regulatory mutants (rib81); experiment: Sensitivity after electroporation to K2Cr2O7, Burkholder medium with 0.3 M sucrose (Table 22); assay type: cell-based; design: key: +++: strong growth; ++: weak growth; —: absence of growth
# [8] = test system: Pichia guilliermondii wild type and regulatory mutants (rib81); experiment: as above; assay type: cell-based; design: key: +++: strong growth; ++: weak growth; +: very weak growth; —: absence of growth; conditions: K2Cr2O7 400 μM
# [9] = test system: Candida famata regulatory mutants unable to overproduce riboflavin; experiment: Sensitivity to K2Cr2O7, Burkholder medium (Table 10); assay type: cell-based
# Description: In the next experiments, the influence of cobalt and chromium ions on the growth and riboflavin synthesis of regulatory mutants having defects in derepression (derepression mutants) was studied.
# [10] = test system: Candida famata regulatory mutants able to overproduce riboflavin; experiment: Sensitivity to K2Cr2O7, solid Burkholder medium with 0.5% glycerol (Table 14); assay type: cell-based
# Protocol: as §1
structure (smiles),measurement,setting,value
[Cl-].[Cl-].[Co+2] [CoCl2],concentration non-toxic for yeast growth that stimulates riboflavin synthesis,C. famata,15 µg/mL
same,higher concentrations tested that inhibited plate growth,C. famata,50 µg/mL and 100 µg/mL
same,maximal subinhibitory concentration which stimulates flavinogenesis,C. famata,25 µg/mL
O=S(=O)([O-])[O-].[Cu+2] [CuSO4],"inhibitory concentration, mutants overproducing lower amounts of riboflavin",[1],0.15 mM
same,"inhibitory concentration, strains producing higher amounts of riboflavin",[1],0.5 mM
same,growth,[2]; Cu^+2 0.3 mM,—
same,growth,[2]; Cu^+2 8 mM,—
same,growth,"[3]; #2-5, Cu^+2 0.45 mM",+
same,growth,"[3]; #4-48, Cu^+2 0.45 mM",+
same,growth,"[3]; #75, Cu^+2 0.45 mM",+
same,growth,"[3]; L20105 (leu2), Cu^+2 0.6 mM",+
same,growth,"[3]; L20105-3-2-4, Cu^+2 0.1 mM",+
same,growth,"[3]; L20105-3-2-8, Cu^+2 0.1 mM",+
same,growth,"[3]; L20105-3-2-12, Cu^+2 0.1 mM",+
[K+].[K+].[O]=[Cr](=[O])([O-])[O][Cr](=[O])(=[O])[O-] [K2Cr2O7],difference in sensitivity between regulatory mutants and the wild type,[4],no differences in sensitivity
same,growth,[5],+
same,growth,"[6]; #2-5, K2Cr2O7 65 μM",+
same,growth,"[6]; #2-5, K2Cr2O7 75 μM",+
same,growth,"[6]; L20105-3-2-4, K2Cr2O7 30 μM",+
same,growth,"[6]; L20105-3-2-4, K2Cr2O7 40 μM",+
same,growth,"[6]; L20105-3-2-8, K2Cr2O7 30 μM",+
same,growth,"[6]; L20105-3-2-8, K2Cr2O7 40 μM",+
same,growth,"[6]; L20105-3-2-12, K2Cr2O7 30 μM",+
same,growth,"[6]; L20105-3-2-12, K2Cr2O7 40 μM",+
same,growth,"[7]; #9-20 (leu2), K2Cr2O7 100 μM",+++
same,growth,"[7]; #9-20 (leu2), K2Cr2O7 150 μM",+++
same,growth,"[7]; #9-20 (leu2), K2Cr2O7 200 μM",+++
same,growth,"[7]; #9-20 (leu2), K2Cr2O7 250 μM",+++
same,growth,"[7]; #9-20 (leu2), K2Cr2O7 300 μM",+++
same,growth,"[7]; #9-20 (leu2), K2Cr2O7 350 μM",+++
same,growth,"[7]; #9-20 (leu2), K2Cr2O7 450 μM",—
same,growth,"[7]; #9-20 (leu2), K2Cr2O7 500 μM",—
same,growth,"[7]; #9-20 (leu2), K2Cr2O7 550 μM",—
same,growth,"[7]; #9-20 (leu2), K2Cr2O7 600 μM",—
same,growth,"[7]; ATCC9058, K2Cr2O7 100 μM",+++
same,growth,"[7]; ATCC9058, K2Cr2O7 150 μM",+++
same,growth,"[7]; ATCC9058, K2Cr2O7 200 μM",+++
same,growth,"[7]; ATCC9058, K2Cr2O7 250 μM",+++
same,growth,"[7]; ATCC9058, K2Cr2O7 300 μM",+++
same,growth,"[7]; ATCC9058, K2Cr2O7 350 μM",+++
same,growth,"[7]; ATCC9058, K2Cr2O7 450 μM",—
same,growth,"[7]; ATCC9058, K2Cr2O7 500 μM",—
same,growth,"[7]; ATCC9058, K2Cr2O7 550 μM",—
same,growth,"[7]; ATCC9058, K2Cr2O7 600 μM",—
same,growth,[8]; #9-20 (leu2),+
same,growth,[8]; ATCC9058,+
same,growth of wild-type strains VKM Y-9 and L20105 (leu2),[9]; Cr^+6 0.15 mM,grow at this concentration quite satisfactory
same,concentration toxic for the derepression mutants,[9]; Cr^+6 ions as K2Cr2O7,0.15 mM
same,concentration inhibiting growth of weaker overproducers,[10],50 µM
